Data reported in patent US8507538B2, “Selective heterocyclic sphingosine 1 phosphate receptor modulators” (Receptos, Inc., priority 2009, dated 2013).
Where a name gives a salt, the structure may show the parent alone.

Target: S1P1/EDG1 (Homo sapiens, UniProt P21453)
Test: S1P1 CRE-bla CHOK1 reporter assay (inhibition of Forskolin induced cAMP)
Type: cell-based
Conditions: agonist activity range, Table 2; read-out: S1P1 ACTIVITY
Source text: A mammalian expression plasmid containing S1P1/EDG1 cloned into pcDNA3.1 was purchased from Missouri S&T cDNA Resource Centre. The nucleotide and amino acid sequence of human S1P1/EDG1 are published in Hla and Maciag (J Biol Chem, 265(1990), 9308-9313). S1P1/pcDNA3.1 was transfected into the CRE-bla CHO K1 (Invitrogen) cell line, and stable single cell clones were selected using standard techniques. Expression of functional SIP1/EDG1 receptor was confirmed by cell surface FACS with a S1P1 antibody (R&D Systems, clone 218713) and S1P-mediated inhibition of Forskolin induced cAMP.
Cells were seeded into 384-well black wall/clear bottom plates at 10^4 cells/well/19.5 μl assay media (DMEM-phenol free, 0.5% charcoal/dextran stripped serum, 2 mM glutamine, 0.1 mM NEAA, 1 mM Na-Pyruvate, 25 mM Hepes) and incubated for 18 hrs at 37° C. in 5% CO2. Dose response curves (10-point) were generated in 10 mM Hepes, 0.1% Pluronic F127, in the presence of Forskolin. Cells were treated with 0.5 μl compound in the presence of 2 μM Forskolin for 4 hrs at 37° C. The FRET-based β-lactamase fluorescent substrate (LiveBLAzer™ FRET B/G Loading Kit CC4-AM; Invitrogen) was prepared according to manufacturer's directions, and incubated with cells for 2 hrs at room temperature. Plates were read at Ex:410/Em:458 and Ex:410/Em:522, and the response ratio determined. Data was analyzed by non-linear regression to determine the EC50 for inhibition of Forskolin induced cAMP.

S1P1/EDG1, sequence (P21453 whole entry): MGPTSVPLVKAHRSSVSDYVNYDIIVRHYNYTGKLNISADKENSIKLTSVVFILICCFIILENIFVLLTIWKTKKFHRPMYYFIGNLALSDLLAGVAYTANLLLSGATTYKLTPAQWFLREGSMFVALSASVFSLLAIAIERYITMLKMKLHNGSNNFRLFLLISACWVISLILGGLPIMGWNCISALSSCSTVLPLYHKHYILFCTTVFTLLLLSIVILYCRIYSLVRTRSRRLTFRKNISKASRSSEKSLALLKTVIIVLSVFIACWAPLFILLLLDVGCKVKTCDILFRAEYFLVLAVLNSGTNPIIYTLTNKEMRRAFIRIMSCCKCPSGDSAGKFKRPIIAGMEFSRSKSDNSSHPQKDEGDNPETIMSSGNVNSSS

| SMILES | EC50 [nM] |
| --- | --- |
| CC(C)Oc1ccc(-c2nnc(-c3cccc4c3CC[C@@H]4N)s2)cc1C#N [Compound 4, (S)-5-(5-(1-amino-2,3-dihydro-1H-inden-4-yl)-1,3,4-thiadiazol-2-yl)-2-isopropoxybenzonitrile hydrochloride] | 0.5 to 5 |
| CCOc1ccc(-c2nnc(-c3cccc4c3CC[C@@H]4N)s2)cc1OCC [Compound 6] | 0.5 to 5 |
| CC(C)Oc1ccc(-c2nnc(-c3cccc4c3CC[C@@H]4NC(=O)CO)s2)cc1C#N [Compound 7, (S)-N-(4-(5-(3-cyano-4-isopropoxyphenyl)-1,3,4-thiadiazol-2-yl)-2,3-dihydro-1H-inden-1-yl)-2-hydroxyacetamide] | < 0.05 |
| CC(C)Oc1ccc(-c2nnc(-c3cccc4c3CC[C@H]4NC(=O)CO)s2)cc1C#N [Compound 8, (R)-N-(4-(5-(3-cyano-4-isopropoxyphenyl)-1,3,4-thiadiazol-2-yl)-2,3-dihydro-1H-inden-1-yl)-2-hydroxyacetamide] | 0.05 to 0.5 |
| CC(C)Oc1ccc(-c2nnc(-c3cccc4c3CC[C@@H]4NC(=O)CN)s2)cc1C#N [Compound 9] | 0.05 to 0.5 |
| COCC(=O)N[C@@H]1CCc2c(-c3nnc(-c4ccc(OC(C)C)c(C#N)c4)s3)cccc21 [Compound 11] | 0.05 to 0.5 |
| COCC(=O)N[C@H]1CCc2c(-c3nnc(-c4ccc(OC(C)C)c(C#N)c4)s3)cccc21 [Compound 12] | 0.5 to 5 |
| CC(C)Oc1ccc(-c2nnc(-c3cccc4c3CC[C@@H]4NC(=O)CN(C)C)s2)cc1C#N [Compound 13] | 0.5 to 5 |
| CC(=O)N[C@H]1CCc2c(-c3nnc(-c4ccc(OC(C)C)c(C#N)c4)s3)cccc21 [Compound 14, (S)-N-(4-(5-(3-cyano-4-isopropoxyphenyl)-1,3,4-thiadiazol-2-yl)-2,3-dihydro-1H-inden-1-yl)acetamide] | 0.05 to 0.5 |
| CC(=O)N[C@@H]1CCc2c(-c3nnc(-c4ccc(OC(C)C)c(C#N)c4)s3)cccc21 [Compound 15, (R)-N-(4-(5-(3-cyano-4-isopropoxyphenyl)-1,3,4-thiadiazol-2-yl)-2,3-dihydro-1H-inden-1-yl)acetamide] | 0.05 to 0.5 |
| COC(=O)N[C@H]1CCc2c(-c3nnc(-c4ccc(OC(C)C)c(C#N)c4)s3)cccc21 [Compound 16, (S)-methyl(4-(5-(3-cyano-4-isopropoxyphenyl)-1,3,4-thiadiazol-2-yl)-2,3-dihydro-1H-inden-1-yl)carbamate] | 0.5 to 5 |
| CC(C)Oc1ccc(-c2nnc(-c3cccc4c3CC[C@@H]4NCCO)s2)cc1C#N [Compound 18, (S)-5-(5-(1-((2-hydroxyethyl)amino)-2,3 dihydro-1H-inden-4-yl)-1,3,4-thiadiazol-2-yl)-2-isopropoxy-benzonitrile] | 0.5 to 5 |
| COCCN[C@H]1CCc2c(-c3nnc(-c4ccc(OC(C)C)c(C#N)c4)s3)cccc21 [Compound 19] | 0.5 to 5 |
| CC(C)Oc1ccc(-c2nnc(-c3cccc4c3CC[C@@H]4NCC(=O)N(C)C)s2)cc1C#N [Compound 21, (S)-2-((4-(5-(3-cyano-4-isopropoxyphenyl)-1,3,4-thiadiazol-2-yl)-2,3-dihydro-1H-inden-1-yl)amino)-N,N-dimethylacetamide hydrochloride] | 0.5 to 5 |
| CC(C)Oc1ccc(-c2nnc(-c3cccc4c3CC[C@@H]4NCC(=O)N3CCCC3)s2)cc1C#N [Compound 23] | 0.5 to 5 |
| CC(C)Oc1ccc(-c2nnc(-c3cccc4c3CC[C@@H]4NCC(=O)N3CCOCC3)s2)cc1C#N [Compound 24] | 0.5 to 5 |
| CC(C)Oc1ccc(-c2nnc(-c3cccc4c3CC[C@@H]4NCC(=O)N3CCOCC3)s2)cc1C#N [Compound 25] | 0.05 to 0.5 |
| CC(C)Oc1ccc(-c2nnc(-c3cccc4c3CC[C@@H]4NCC(=O)O)s2)cc1C#N [Compound 26, (S)-2-((4-(5-(3-cyano-4-isopropoxyphenyl)-1,3,4-thiadiazol-2-yl)-2,3-dihydro-1H-inden-1-yl)amino)acetic acid] | 0.05 to 0.5 |

| SMILES | EC50 [nM] |
| --- | --- |
| CC(C)Oc1ccc(-c2nnc(-c3cccc4c3CC[C@@H]4NCc3ncc[nH]3)s2)cc1C#N [Compound 28, (S)-5-(5-(1-(((1H-imidazol-2-yl)methyl)amino)-2,3-dihydro-1H-inden-4-yl)-1,3,4-thiadiazol-2-yl)-2-isopropoxybenzonitrile] | 0.05 to 0.5 |
| COCCN(CCOC)[C@H]1CCc2c(-c3nnc(-c4ccc(OC(C)C)c(C#N)c4)s3)cccc21 [Compound 30] | 0.5 to 5 |
| CC(C)Oc1ccc(-c2nnc(-c3cccc4c3CC[C@@H]4NCCS(C)(=O)=O)s2)cc1C#N [Compound 31, (S)-2-isopropoxy-5-(5-(1-((2-(methylsulfonyl)ethyl)amino)-2,3-dihydro-1H-inden-4-yl)-1,3,4-thiadiazol-2-yl)benzonitrile] | 0.05 to 0.5 |
| CC(C)Oc1ccc(-c2nnc(-c3cccc4c3CC[C@@H]4NS(C)(=O)=O)s2)cc1C#N [Compound 33, (S)-N-(4-(5-(3-cyano-4-isopropoxyphenyl)-1,3,4-thiadiazol-2-yl)-2,3-dihydro-1H-inden-1-yl)methanesulfonamide] | 0.05 to 0.5 |
| COCCS(=O)(=O)N[C@H]1CCc2c(-c3nnc(-c4ccc(OC(C)C)c(C#N)c4)s3)cccc21 [Compound 35] | 0.05 to 0.5 |
| CC(C)Oc1ccc(-c2nnc(-c3cccc4c3CC[C@@H]4NCC(=O)N3CCCC3)s2)cc1C#N [Compound 39] | 0.05 to 0.5 |
| CC(C)Oc1ccc(-c2nnc(-c3cccc4c3CC[C@@H]4NS(=O)(=O)CC(=O)O)s2)cc1C#N [Compound 40, (S)-2-(N-(4-(5-(3-cyano-4-isopropoxyphenyl)-1,3,4-thiadiazol-2-yl)-2,3-dihydro-1H-inden-1-yl)sulfamoyl)acetic acid] | 0.05 to 0.5 |
| CC(C)Oc1ccc(-c2nnc(-c3cccc4c3CC[C@@H]4NS(=O)(=O)CC(=O)N(C)C)s2)cc1C#N [Compound 42, (S)-2-(N-(4-(5-(3-cyano-4-isopropoxyphenyl)-1,3,4-thiadiazol-2-yl)-2,3-dihydro-1H-inden-1-yl)sulfamoyl)-N,N-dimethylacetamide] | 0.05 to 0.5 |
| CC(C)Oc1ccc(-c2nnc(-c3cccc4c3CC[C@@H]4NS(=O)(=O)CC(N)=O)s2)cc1C#N [Compound 44] | < 0.05 |
| CC(C)Oc1ccc(-c2nnc(-c3cccc4c3CC[C@@H]4NS(=O)(=O)CCO)s2)cc1C#N [Compound 45, (S)-N-(4-(5-(3-cyano-4-isopropoxyphenyl)-1,3,4-thiadiazol-2-yl)-2,3-dihydro-1H-inden-1-yl)-2-hydroxyethanesulfonamide] | 0.05 to 0.5 |
| CC(C)Oc1ccc(-c2nnc(-c3cccc4c3CC[C@@H]4NC(=O)N3CC(C(=O)O)C3)s2)cc1C#N [Compound 50] | 0.05 to 0.5 |
| CC(C)Oc1ccc(-c2nnc(-c3cccc4c3CC[C@H]4NC(=O)N3CCCC3)s2)cc1C#N [Compound 52] | 0.05 to 0.5 |
| CC(C)Oc1ccc(-c2nnc(-c3cccc4c3CC[C@@H]4NC(=O)N3CCCC3)s2)cc1C#N [Compound 53] | 0.5 to 5 |
| CC(C)Oc1ccc(-c2nnc(-c3cccc4c3CC[C@@H]4NC(=O)N3CC[C@H](O)C3)s2)cc1C#N [Compound 54] | 0.05 to 0.5 |
| CC(C)Oc1ccc(-c2nnc(-c3cccc4c3CC[C@@H]4NC(=O)N3CC[C@H](O)C3)s2)cc1C#N [Compound 55] | 0.5 to 5 |
| CC(C)Oc1ccc(-c2nnc(-c3cccc4c3CC[C@@H]4NC(=O)N3CCC[C@H](O)C3)s2)cc1C#N [Compound 60] | 0.5 to 5 |
| CC(C)Oc1ccc(-c2nnc(-c3cccc4c3CC[C@@H]4NC(=O)N3CCC[C@H](O)C3)s2)cc1C#N [Compound 61] | 0.05 to 0.5 |
